Laboratory results from US20200246308A1, “SYNERGISTIC COMBINATIONS OF UROLITHINS A AND B FOR IMPROVING COGNITIVE CAPACITY OR COGNITIVE FUNCTION” (Natreon, Inc., priority 2018, published 2020).

Legend:
[1] = test system: scopolamine induced dementia in rats; experiment: Y-maze test, scopolamine induced dementia in rats (Study 2); assay type: in vivo, Charles Foster male albino rats; conditions: 50 mg dose orally once daily; for Coping behavior to novel environment (% time in novel arm), trial-2 / Curiosity behavior (total number of entries), trial-1 and trial-2: scopolamine treated rats; for % known and novel arm entries (spatial recognition memory): vs scopolamine treated rats
Protocol: 2.2. Animal subjects. Inbred Charles Foster male albino rats (130-180 g) were obtained from the Central Animal House, Institute of Medical Sciences (IMS), Banaras Hindu University (BHU), Varanasi, Uttar Pradesh, India. These were certified to be pathogen free and were randomly distributed into different experimental groups. The rats were kept in the departmental animal house at an ambient temperature of 25±1° C. and 45-55% RH, with a 12-h light/dark cycle (lights on 7:00-19:00 h). The animals had free access to standard pellet chow and tap water ad libitum. Experiments were conducted between 9:00 and 14:00 h. The behavioral testing was done during the light phase. Animals were housed in groups and acclimatized for at least one week before using them for experiments. Animals were transported in cage covered by dark cloth to the experimental room. The experimental procedures were in compliance with National Institutes of Health Guide for Care and Use of Laboratory Animals.
The rats were pretreated orally for seven days through an orogastric tube with experimental drugs (10, 25 and 50 mg/kg once daily) suspended in 0.3% carboxymethyl cellulose (CMC). The treatment was continued until the end of the experiment procedures (Singh, G. K., Garabadu, D., Muruganadam, A. V., Joshi, V. K., Krishnamurthy, S., “Antidepressant activity of Asparagus racemosus in animal models of depression,” Pharmacol. Biochem. Behav. (2009) 91(3):283-90). Scopolamine was dissolved in water for injection and administered on day 7 after one hour of drug treatment administration. Donepezil (5 mg/kg; i.p.)
was used as standard drug. On day 8 the behavioral experiment was performed. The animals were sacrificed and hippocampus was micro-dissected using the coordinates of the rat brain atlas. All control group animals were treated with the 0.3 ml of vehicle (0.3% CMC suspension) equal to the volume of experimental drugs (Ohj a, R., et al., “Asparagus recemosus enhances memory and protects against amnesia in rodent models,” Brain Cogn. (2010) October; 74(1): 1-9).
Spatial recognition memory, general exploratory behavior, and anxiety-like behavior were assessed by the Y-maze test. Y-maze consists of three similar arms of dimension 50 cm long, 16 cm wide and 32 cm high. In the first trial, the novel arm was blocked and the animal was allowed to move for 15 min in other two arms. In the second trial, the novel arm was opened and the animal was allowed to move for 5 min in all three arms after 4 h of the first trial. The total number of entries in all arms (for 5 min of trial-1 and trial-2) is indicative of general exploration attitude (curiosity). The % entries in known and novel arms for the 5 min period of trial 2 were considered as a measure of spatial recognition memory. Coping strategy to the novel environment was estimated by the percentage of the ratio of time spent in the novel arm to time spent in all arms and in the center of the apparatus during trial 2. The decrease in the coping behavior to the novel environment was considered as an increase in anxiety-like behavior (Krishnamurthy, S., et al., “Risperidone ameliorates post-traumatic stress disorder-like symptoms in modified stress re-stress model,” Neuropharmacology (2013) 75:62-77).

[2] = target: T1, Rat Acetylcholinesterase-induced β-Amyloid (Aβ1-40) Aggregation (Rattus norvegicus, UniProt P37136); experiment: Inhibition of AChE-induced β-amyloid peptide aggregation, ThT method; assay type: biochemical; conditions: test compounds 50 μM, B:A in μM, ThT fluorescence, 48 h
T1 sequence (P37136 32-614): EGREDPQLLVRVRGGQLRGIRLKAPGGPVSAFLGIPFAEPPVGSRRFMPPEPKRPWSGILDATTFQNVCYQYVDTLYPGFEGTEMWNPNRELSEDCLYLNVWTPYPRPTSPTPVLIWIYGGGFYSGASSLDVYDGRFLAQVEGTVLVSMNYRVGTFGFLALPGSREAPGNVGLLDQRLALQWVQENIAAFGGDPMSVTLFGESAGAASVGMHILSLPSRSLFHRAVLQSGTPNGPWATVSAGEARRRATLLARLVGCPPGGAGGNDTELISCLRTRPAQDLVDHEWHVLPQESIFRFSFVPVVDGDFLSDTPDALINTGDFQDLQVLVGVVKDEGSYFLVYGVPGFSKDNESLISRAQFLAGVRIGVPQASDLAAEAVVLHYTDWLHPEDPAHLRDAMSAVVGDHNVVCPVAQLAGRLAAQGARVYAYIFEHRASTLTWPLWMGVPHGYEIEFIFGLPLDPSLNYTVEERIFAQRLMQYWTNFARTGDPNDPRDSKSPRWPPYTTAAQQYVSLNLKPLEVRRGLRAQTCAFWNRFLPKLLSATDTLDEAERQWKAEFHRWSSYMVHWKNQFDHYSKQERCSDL
Protocol: Chemical reagents and starting materials were employed as above.
The effect of 3-OH-DBP (Urolithin B: B) and 3,8-(OH)2-DBP (Urolithin A: A) on the aggregation propensity of Aβ1-40 and (Thiofavin-T) ThT assay measurements were performed. […] Therefore, ThT assay was performed to study the effect of 3-(OH)-DBP (B) and 3,8-(OH)2-DBP (A) on the fibrillization of Aβ1-40.
The Aβ1-40 (10 μM and 30 μM) was incubated alone and independently with different concentrations of test compounds in the ratios shown in Tables 6 and 7, respectively.
2 μL of different concentrations of Aβ40 (10 and 30 μM) was incubated with 16 μL of AChE in the presence of different ratio of test compounds to obtain final concentrations of 30 or 10 μM Aβ40, […], 10, 20, 50 μM test compounds and 2 μL assay buffer ([…]). The mixture was incubated at room temperature for 24 or 48 hr in dark (Time period may be changed according to experiment).
Fluorescence intensities were obtained for Aβ40 aggregation in the presence of inhibitors, in the absence of inhibitors and the blanks or solvent control. After incubation, 178 μL of 20 μM ThT was added.
The percentage inhibition of the AChE-induced Aβ1-40 aggregation was calculated as follows.
Preparation of Aβ40Stock: Aβ40 peptide (0.25 mg) (Calbiochem, Merck) was dissolved in hexafluoro-2-propanol (HFIP, 0.2 mL) and incubated at room temperature for 1 h. HFIP was then removed by the flow of nitrogen and further dried under vacuum. The concentration of Aβ40 peptide was determined by UV-vis spectrometry (Biotek USA; Plate reader) using a molar extinction coefficient of 1450 cm^−1 M^−1 at 276 nm. HFIP-treated A1340 was then dissolved in 10 mM PBS buffer to a concentration of […] at pH 7.4. The assay was performed in triplicate and in three independent runs.

Structure (SMILES) | Coping behavior to novel environment (% time in novel arm), trial-2 [1] | Curiosity behavior (total number of entries), trial-1 and trial-2 [1] | % known and novel arm entries (spatial recognition memory) [1] | inhibition of Aβ40 aggregation ([2]; Aβ40 30 μM) | inhibition of Aβ40 aggregation ([2]; amyloid beta 10 μM)
O=c1oc2cc(O)ccc2c2ccc(O)cc12 [Urolithin A, 3,8-dihydroxy-dibenzo-alpha-pyrone] | attenuated the scopolamine-induced decrease in coping strategy | attenuated the scopolamine induced decrease in curiosity behavior | dose dependently reversed the % known and novel arm entries | ~32% | ~35%
O=c1oc2cc(O)ccc2c2ccccc12 [Urolithin B, 3-hydroxy-dibenzo-alpha-pyrone] | attenuated the scopolamine-induced decrease in coping strategy | attenuated the scopolamine induced decrease in curiosity behavior | dose dependently reversed the % known and novel arm entries | ~41% | ~50%
